# In patent publication US20100016731A1, “Hemodynamic Detection of Circulatory Anomalies” (Cardiox Corporation, priority 2008, published 2010):
# Counter-ions that a name gives are not always drawn.
# Legend:
# [1] = 1 day
# From the text: However, due to the ratiometric form of Eq. 7 in the present invention, the terms D and CCF cancel out. Also, the units of measure for the fluorescence signal level (e.g., millivolts-seconds) cancel out. […] However, the amount of the indicator injected needs to be sufficiently large so that the much smaller indicator/dilution curves associated with one or two right-to-left shunts can be adequately resolved and their corresponding areas can be accurately calculated. In a preferred embodiment of the present invention involving the use of Indocyanine Green (ICG) dye (supplied, for example, by Akorn, Inc., 2500 Millbrook Drive, Buffalo Grove, Ill. 60089) as the indicator, the preferred amount of ICG dye injected is 2.0 ml at an ICG dye concentration of 2.5 milligram/ml which is equivalent to an injected ICG dose of 5.0 milligrams. The chemical name for Indocyanine Green is 1H-benz(e)indolium, 2-[7-[1,3-dihydro-1,1-dimethyl-3-(4-sulfobutyl)-2H-benz[e]indo-2-ylidene]-1,3,5-heptatrienyl]-1,1-dimethyl-3-(4-sulfobutyl)-hydroxide, inner salt, sodium, or 2-[7-[1,1-dimethyl-3-(4-sulfobutyl)benz[e]indolin-2-ylidene]-1,3,5-heptatrienyl]-1,1-dimethyl-3-(4-sulfobutyl)-1H-benz[e]indolium hydroxide, inner salt, sodium salt. A typical right-to-left shunt test procedure might involve a total of 3 to 5 tests which represents a total injected dose of 15 to 25 milligrams. […]
# [2] = Excitation and fluorescence wavelengths and signal attenuation versus tissue depth of fluorescing dyes (FIG. 2); assay type: physicochemical
# From the text: These fluorescing dyes are excited by one wavelength of electromagnetic radiation, and emit a detectable signal at a second wavelength. Looking to FIG. 2, the excitation signal for fluorescein dye is represented at curve 30 which is an excitation signal at less than about 500 nanometers (nm). A resultant fluorescence emission from the excitation at 30 is shown at curve 32, at a wavelength of about 525 nm.
# Looking to the indocyanine green dye spectrum, an excitation curve is shown at 34, having a peak excitation wavelength at about 785 nanometers. Correspondingly, the fluorescence emission from excitation at curve 34 is represented at curve 36 with a peak emission wavelength of about 830 nanometers. Directed across FIG. 2 is a curve representing the level of constant signal attenuation or absorption of about 37% resulting from passage of signal through tissue. That curve is represented at 38. Note that if a blood vessel is about one millimeter beneath the surface of skin the system would perform at about 37% of the original intensity of the excitation signal and fluorescence signal for the case of indocyanine green dye indicator. In contrast, a 37% decrease in excitation and emission signal level would result for the fluorescein dye indicator at a tissue thickness of only 0.25 mm. Since blood vessel being targeted is at least 1 mm below skin surface, the attenuation and associated signal loss would be much larger. Therefore, indocyanine green dye is preferred.
# Turning again to the indocyanine green dye spectrum, note that the excitation signal 34 for ICG intersects curve 38 at a depth allowing for readily reaching blood vessels, for example within the pinna of the ear. Accordingly, indocyanine green is compatible with use as a circulatory tracking agent when detecting through skin, and indocyanine green was the indicator elected for subsequent study.
# [3] = manufacturers specified guideline; cited from earlier work
SMILES,recommended ICG dose for a human subject [1],excitation wavelength ([2]; FIG. 2),recommended maximum ICG dose per day [3],fluorescence emission wavelength ([2]; FIG. 2),"tissue thickness (depth of blood vessel beneath skin) at constant signal attenuation of about 37% ([2]; excitation and fluorescence signal, FIG. 2 curve 38)"
"CC1(C)C(/C=C/C=C/C=C/C=C2\N(CCCCS(=O)(=O)O)c3ccc4ccccc4c3C2(C)C)=[N+](CCCCS(=O)(=O)[O-])c2ccc3ccccc3c21 [ICG, 1H-benz(e)indolium, 2-[7-[1,3-dihydro-1,1-dimethyl-3-(4-sulfobutyl)-2H-benz[e]indo-2-ylidene]-1,3,5-heptatrienyl]-1,1-dimethyl-3-(4-sulfobutyl)-hydroxide, inner salt, sodium]",about 127 milligrams,about 785 nanometers,≤ 2 milligrams per kilogram of body weight,–,–
O=C1OC2(c3ccc(O)cc3Oc3cc(O)ccc32)c2ccccc21 [fluorescein],–,less than 500 nanometers,–,about 525 nm,0.25 mm
